Measurements published in PubChem BioAssay (NCI).
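Values below derive from 48-hour exposures of cells grown in 96-well plates, with endpoints linearly interpolated between the two concentrations bracketing the appropriate inhibition level. TGI: total growth inhibition.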

The molecules below were run on TK-10 renal (assay: NCI-60 cell line screen, 48 h).

| Compound | TGI |
| --- | --- |
| COc1ccc(-c2cn3c(nc4ccccc43)c(/C=C/c3cccs3)n2)cc1 | > 100 µM |

What follows are molecules tested on MDA-MB-435 (assay: NCI-60 cell line screen, 48 h).

| Compound | TGI |
| --- | --- |
| CCCC(=O)N(C(=O)CCC)C1=C(Cl)C(=O)c2ccccc2C1=O | 21.4 µM |
| Cc1ccc(C)c2c1C/C(=C\c1ccccc1C(=O)O)C2=O | > 100 µM |
| COc1ccc(-c2cn3c(nc4ccccc43)c(/C=C/c3cccs3)n2)cc1 | 36.5 µM |
| O=C(Nc1c(Cl)cccc1Cl)c1c(Cl)c(Cl)c(Cl)c(Cl)c1-c1nc2ccccc2[nH]1 | > 100 µM |
| CCC1=C(C)C(=O)N/C1=C\c1[nH]c(C)c([C@H](C)CCN)c1C | 29.6 µM |

Each molecule was assayed on OVCAR-3 ovarian (assay: NCI-60 cell line screen, 48 h).

| Compound | TGI |
| --- | --- |
| CCCC(=O)N(C(=O)CCC)C1=C(Cl)C(=O)c2ccccc2C1=O | 11.8 µM |
| Cc1ccc(C)c2c1C/C(=C\c1ccccc1C(=O)O)C2=O | > 100 µM |
| COc1ccc(-c2cn3c(nc4ccccc43)c(/C=C/c3cccs3)n2)cc1 | > 100 µM |
| O=C(Nc1c(Cl)cccc1Cl)c1c(Cl)c(Cl)c(Cl)c(Cl)c1-c1nc2ccccc2[nH]1 | > 100 µM |
| CCC1=C(C)C(=O)N/C1=C\c1[nH]c(C)c([C@H](C)CCN)c1C | 30.1 µM |

Each molecule was assayed on NCI-H23 lung (assay: NCI-60 cell line screen, 48 h).

| Compound | TGI |
| --- | --- |
| CCCC(=O)N(C(=O)CCC)C1=C(Cl)C(=O)c2ccccc2C1=O | 15.8 µM |
| Cc1ccc(C)c2c1C/C(=C\c1ccccc1C(=O)O)C2=O | > 100 µM |
| COc1ccc(-c2cn3c(nc4ccccc43)c(/C=C/c3cccs3)n2)cc1 | > 100 µM |
| O=C(Nc1c(Cl)cccc1Cl)c1c(Cl)c(Cl)c(Cl)c(Cl)c1-c1nc2ccccc2[nH]1 | > 100 µM |
| CCC1=C(C)C(=O)N/C1=C\c1[nH]c(C)c([C@H](C)CCN)c1C | 26.8 µM |

Each molecule was assayed on OVCAR-8 ovarian (assay: NCI-60 cell line screen, 48 h).

| Compound | TGI |
| --- | --- |
| CCCC(=O)N(C(=O)CCC)C1=C(Cl)C(=O)c2ccccc2C1=O | 25.3 µM |
| Cc1ccc(C)c2c1C/C(=C\c1ccccc1C(=O)O)C2=O | > 100 µM |
| O=C(Nc1c(Cl)cccc1Cl)c1c(Cl)c(Cl)c(Cl)c(Cl)c1-c1nc2ccccc2[nH]1 | > 100 µM |
| CCC1=C(C)C(=O)N/C1=C\c1[nH]c(C)c([C@H](C)CCN)c1C | 28.8 µM |

The molecules below were run on IGROV1 ovarian (assay: NCI-60 cell line screen, 48 h).

| Compound | TGI |
| --- | --- |
| CCCC(=O)N(C(=O)CCC)C1=C(Cl)C(=O)c2ccccc2C1=O | 20.9 µM |
| Cc1ccc(C)c2c1C/C(=C\c1ccccc1C(=O)O)C2=O | > 100 µM |
| O=C(Nc1c(Cl)cccc1Cl)c1c(Cl)c(Cl)c(Cl)c(Cl)c1-c1nc2ccccc2[nH]1 | > 100 µM |
| CCC1=C(C)C(=O)N/C1=C\c1[nH]c(C)c([C@H](C)CCN)c1C | 32 µM |

What follows are molecules tested on NCI-H226 lung (assay: NCI-60 cell line screen, 48 h).

| Compound | TGI |
| --- | --- |
| CCCC(=O)N(C(=O)CCC)C1=C(Cl)C(=O)c2ccccc2C1=O | 23.8 µM |
| Cc1ccc(C)c2c1C/C(=C\c1ccccc1C(=O)O)C2=O | 80.5 µM |
| COc1ccc(-c2cn3c(nc4ccccc43)c(/C=C/c3cccs3)n2)cc1 | > 100 µM |
| O=C(Nc1c(Cl)cccc1Cl)c1c(Cl)c(Cl)c(Cl)c(Cl)c1-c1nc2ccccc2[nH]1 | > 100 µM |
| CCC1=C(C)C(=O)N/C1=C\c1[nH]c(C)c([C@H](C)CCN)c1C | 31.8 µM |

The molecules below were run on MDA-MB-231 breast (assay: NCI-60 cell line screen, 48 h).

| Compound | TGI |
| --- | --- |
| CCCC(=O)N(C(=O)CCC)C1=C(Cl)C(=O)c2ccccc2C1=O | > 67.5 µM |
| COc1ccc(-c2cn3c(nc4ccccc43)c(/C=C/c3cccs3)n2)cc1 | > 100 µM |
| CCC1=C(C)C(=O)N/C1=C\c1[nH]c(C)c([C@H](C)CCN)c1C | 32.7 µM |

These molecules were tested on BT-549 breast (assay: NCI-60 cell line screen, 48 h).

| Compound | TGI |
| --- | --- |
| CCCC(=O)N(C(=O)CCC)C1=C(Cl)C(=O)c2ccccc2C1=O | 10.3 µM |
| Cc1ccc(C)c2c1C/C(=C\c1ccccc1C(=O)O)C2=O | > 100 µM |
| COc1ccc(-c2cn3c(nc4ccccc43)c(/C=C/c3cccs3)n2)cc1 | > 100 µM |
| O=C(Nc1c(Cl)cccc1Cl)c1c(Cl)c(Cl)c(Cl)c(Cl)c1-c1nc2ccccc2[nH]1 | > 100 µM |
| CCC1=C(C)C(=O)N/C1=C\c1[nH]c(C)c([C@H](C)CCN)c1C | 29.9 µM |

What follows are molecules tested on RXF 393 renal (assay: NCI-60 cell line screen, 48 h).

| Compound | TGI |
| --- | --- |
| CCCC(=O)N(C(=O)CCC)C1=C(Cl)C(=O)c2ccccc2C1=O | 7.1 µM |
| Cc1ccc(C)c2c1C/C(=C\c1ccccc1C(=O)O)C2=O | > 100 µM |
| COc1ccc(-c2cn3c(nc4ccccc43)c(/C=C/c3cccs3)n2)cc1 | > 100 µM |
| O=C(Nc1c(Cl)cccc1Cl)c1c(Cl)c(Cl)c(Cl)c(Cl)c1-c1nc2ccccc2[nH]1 | 45.2 µM |

Each molecule was assayed on U251 CNS (assay: NCI-60 cell line screen, 48 h).

| Compound | TGI |
| --- | --- |
| CCCC(=O)N(C(=O)CCC)C1=C(Cl)C(=O)c2ccccc2C1=O | 23.5 µM |
| Cc1ccc(C)c2c1C/C(=C\c1ccccc1C(=O)O)C2=O | > 100 µM |
| COc1ccc(-c2cn3c(nc4ccccc43)c(/C=C/c3cccs3)n2)cc1 | > 100 µM |
| CCC1=C(C)C(=O)N/C1=C\c1[nH]c(C)c([C@H](C)CCN)c1C | 28.9 µM |

These molecules were tested on CAKI-1 renal (assay: NCI-60 cell line screen, 48 h).

| Compound | TGI |
| --- | --- |
| CCCC(=O)N(C(=O)CCC)C1=C(Cl)C(=O)c2ccccc2C1=O | 5.79 µM |
| Cc1ccc(C)c2c1C/C(=C\c1ccccc1C(=O)O)C2=O | > 100 µM |
| O=C(Nc1c(Cl)cccc1Cl)c1c(Cl)c(Cl)c(Cl)c(Cl)c1-c1nc2ccccc2[nH]1 | > 100 µM |
| CCC1=C(C)C(=O)N/C1=C\c1[nH]c(C)c([C@H](C)CCN)c1C | 32.3 µM |

Each molecule was assayed on RPMI-8226 leukemia (assay: NCI-60 cell line screen, 48 h).

| Compound | TGI |
| --- | --- |
| Cc1ccc(C)c2c1C/C(=C\c1ccccc1C(=O)O)C2=O | > 100 µM |
| COc1ccc(-c2cn3c(nc4ccccc43)c(/C=C/c3cccs3)n2)cc1 | 44.1 µM |
| O=C(Nc1c(Cl)cccc1Cl)c1c(Cl)c(Cl)c(Cl)c(Cl)c1-c1nc2ccccc2[nH]1 | > 100 µM |
| CCC1=C(C)C(=O)N/C1=C\c1[nH]c(C)c([C@H](C)CCN)c1C | > 100 µM |

Each molecule was assayed on CCRF-CEM leukemia (assay: NCI-60 cell line screen, 48 h).

| Compound | TGI |
| --- | --- |
| CCCC(=O)N(C(=O)CCC)C1=C(Cl)C(=O)c2ccccc2C1=O | > 26.7 µM |
| Cc1ccc(C)c2c1C/C(=C\c1ccccc1C(=O)O)C2=O | > 100 µM |
| O=C(Nc1c(Cl)cccc1Cl)c1c(Cl)c(Cl)c(Cl)c(Cl)c1-c1nc2ccccc2[nH]1 | > 100 µM |
| CCC1=C(C)C(=O)N/C1=C\c1[nH]c(C)c([C@H](C)CCN)c1C | > 100 µM |

Each molecule was assayed on SN12C renal (assay: NCI-60 cell line screen, 48 h).

| Compound | TGI |
| --- | --- |
| CCCC(=O)N(C(=O)CCC)C1=C(Cl)C(=O)c2ccccc2C1=O | 52.5 µM |
| Cc1ccc(C)c2c1C/C(=C\c1ccccc1C(=O)O)C2=O | > 100 µM |
| COc1ccc(-c2cn3c(nc4ccccc43)c(/C=C/c3cccs3)n2)cc1 | > 100 µM |
| O=C(Nc1c(Cl)cccc1Cl)c1c(Cl)c(Cl)c(Cl)c(Cl)c1-c1nc2ccccc2[nH]1 | > 100 µM |
| CCC1=C(C)C(=O)N/C1=C\c1[nH]c(C)c([C@H](C)CCN)c1C | 29.8 µM |

The molecules below were run on NCI-H460 lung (assay: NCI-60 cell line screen, 48 h).

| Compound | TGI |
| --- | --- |
| CCCC(=O)N(C(=O)CCC)C1=C(Cl)C(=O)c2ccccc2C1=O | 29.3 µM |
| Cc1ccc(C)c2c1C/C(=C\c1ccccc1C(=O)O)C2=O | > 100 µM |
| COc1ccc(-c2cn3c(nc4ccccc43)c(/C=C/c3cccs3)n2)cc1 | > 100 µM |
| O=C(Nc1c(Cl)cccc1Cl)c1c(Cl)c(Cl)c(Cl)c(Cl)c1-c1nc2ccccc2[nH]1 | > 100 µM |
| CCC1=C(C)C(=O)N/C1=C\c1[nH]c(C)c([C@H](C)CCN)c1C | 35.5 µM |
